The values below come from ChEMBL document CHEMBL5241080, “Quinoline anticancer agents active on DNA and DNA-interacting proteins: From classical to emerging therapeutic targets” (Eur J Med Chem, 2021).

Data set [1] relates to HeLa. The data set is described as follows: Antiproliferative activity against human HeLa cells assessed as reduction in cell viability incubated for 48 hrs by MTT assay. It counts as functional, cell-based. Background: Tetrazolium assays rely on reduction of a dye to a coloured formazan, in cell work by metabolically active cells.
Data set [2] concerns A549. The data set is described as follows: Antiproliferative activity against human A549 cells assessed as reduction in cell viability incubated for 48 hrs by MTT assay. It counts as functional, cell-based. As to conditions: A549, 48 h.
A short description of data set [3]: Inhibition of topoisomerase 2 (unknown origin). Also noted: species or system Homo sapiens.
Data set [4] has as its target T1, DNA topoisomerase 1 (Homo sapiens, UniProt P11387).
T1 sequence (P11387 whole entry): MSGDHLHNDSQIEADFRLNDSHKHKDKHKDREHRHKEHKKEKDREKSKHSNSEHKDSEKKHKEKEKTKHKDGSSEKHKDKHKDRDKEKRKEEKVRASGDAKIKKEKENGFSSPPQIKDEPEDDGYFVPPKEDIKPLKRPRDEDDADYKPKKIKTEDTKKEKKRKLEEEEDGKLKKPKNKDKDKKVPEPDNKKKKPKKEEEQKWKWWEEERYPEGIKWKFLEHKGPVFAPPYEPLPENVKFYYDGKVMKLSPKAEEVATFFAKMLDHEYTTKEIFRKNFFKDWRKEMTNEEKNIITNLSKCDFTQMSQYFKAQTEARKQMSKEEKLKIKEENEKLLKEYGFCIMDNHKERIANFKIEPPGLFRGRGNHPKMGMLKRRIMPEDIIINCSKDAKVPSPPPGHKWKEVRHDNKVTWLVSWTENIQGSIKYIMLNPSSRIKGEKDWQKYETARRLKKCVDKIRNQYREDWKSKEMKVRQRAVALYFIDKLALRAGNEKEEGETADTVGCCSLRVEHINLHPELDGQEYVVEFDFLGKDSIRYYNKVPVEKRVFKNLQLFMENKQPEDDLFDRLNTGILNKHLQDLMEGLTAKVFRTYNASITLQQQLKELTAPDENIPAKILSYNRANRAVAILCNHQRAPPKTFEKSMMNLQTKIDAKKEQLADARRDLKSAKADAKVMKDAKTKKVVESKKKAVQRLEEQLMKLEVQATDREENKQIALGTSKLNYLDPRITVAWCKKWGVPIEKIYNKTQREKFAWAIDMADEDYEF
The data set is described as follows: Inhibition of topoisomerase 1 (unknown origin).

Data set [5] in a line: Oral bioavailability CD-1 mouse at 30 mg/kg. It counts as ADME, organism-based. As to conditions: in vivo.
The test system of data set [6] is MDA-MB-231. The experiment in a line: Cytotoxicity against human MDA-MB-231 cells at 1 uM by MTT assay. It is filed as functional.
In data set [7] the test system is HeLa. The data set is described as follows: Antiproliferative activity against human HeLa cells. It counts as functional, cell-based.
The test system of data set [8] is WI-38. The experiment in a line: Antiproliferative activity against human WI-38 cells. It counts as functional, cell-based.
Data set [9] deals with U2OS. The experiment in a line: Antiproliferative activity against human U2OS cells. It counts as functional, cell-based.
Data set [10] deals with HT-1080. The data set is described as follows: Antiproliferative activity against human HT-1080 cells. It is filed as functional, cell-based.
The test system of data set [11] is MIA PaCa-2. The data set is described as follows: Antiproliferative activity against human MIA PaCa-2 cells. It is filed as functional, cell-based.
Data set [12] addresses Histone deacetylase. The experiment in a line: Inhibition of HDAC (unknown origin). It is filed as protein assay, Homo sapiens.
For data set [13], the system named is NCI-H460. The data set is described as follows: Antiproliferative activity against human NCI-H460 cells. It is filed as functional, cell-based.
Data set [14] concerns U-251. The experiment in a line: Antiproliferative activity against human U-251 cells. It counts as functional, cell-based.
Data set [15] relates to HCT-116. The experiment in a line: Antiproliferative activity against human HCT-116 cells. It is filed as functional, cell-based.
Data set [16] relates to T-24. The experiment in a line: Cytotoxicity against human T24 cells. It counts as functional, cell-based.
In data set [17] the test system is HepG2. The data set is described as follows: Cytotoxicity against human HepG2 cells. It counts as functional, cell-based.
In data set [18] the test system is MGC-803. The experiment in a line: Cytotoxicity against human MGC-803 cells. It counts as functional, cell-based.
For data set [19], the system named is NCI-H460. The experiment in a line: Cytotoxicity against human NCI-H460 cells. It counts as functional, cell-based.
The test system of data set [20] is MDA-MB-435. The data set is described as follows: Cytotoxicity against human MDA-MB-435 cells incubated for 24 hrs by MTT assay. It is filed as functional.
Data set [21] deals with T1, DNA topoisomerase 1. The data set is described as follows: Inhibition of human topoisomerase 1 incubated for 2 hrs by ELISA analysis.
Data set [22] concerns HL-60. The experiment in a line: Cytotoxicity against human HL-60 cells incubated for 24 hrs by MTT assay. It is filed as functional.
For data set [23], the system named is SR. The experiment in a line: Cytotoxicity against human SR cells incubated for 24 hrs by MTT assay. It counts as functional.
In data set [24] the test system is MCF7. The data set is described as follows: Antiproliferative activity against human MCF7 cells assessed as inhibition of cell growth incubated for 72 hrs by MTT assay. It counts as functional, cell-based. The conditions noted are these: MCF7, 72 h.
Data set [25] concerns CAKI-1. The experiment in a line: Antiproliferative activity against human CAKI-1 cells assessed as inhibition of cell growth incubated for 72 hrs by MTT assay. It is filed as functional, cell-based. The conditions noted are these: CAKI-1, 72 h.
The test system of data set [26] is SK-MEL-5. The experiment in a line: Antiproliferative activity against human SK-MEL-5 cells. It counts as functional, cell-based.
Data set [27] concerns SK-MEL-28. The data set is described as follows: Antiproliferative activity against human SK-MEL-28 cells. It counts as functional, cell-based.
A short description of data set [28]: Antiproliferative activity against human A375P cells. It counts as functional, cell-based.
The target in data set [29] is DNA (cytosine-5)-methyltransferase 1 (Homo sapiens, UniProt P26358). The experiment in a line: Inhibition of his-tagged human DNMT1 by scintillation counter analysis.
Chain of DNA (cytosine-5)-methyltransferase 1 (P26358 whole entry): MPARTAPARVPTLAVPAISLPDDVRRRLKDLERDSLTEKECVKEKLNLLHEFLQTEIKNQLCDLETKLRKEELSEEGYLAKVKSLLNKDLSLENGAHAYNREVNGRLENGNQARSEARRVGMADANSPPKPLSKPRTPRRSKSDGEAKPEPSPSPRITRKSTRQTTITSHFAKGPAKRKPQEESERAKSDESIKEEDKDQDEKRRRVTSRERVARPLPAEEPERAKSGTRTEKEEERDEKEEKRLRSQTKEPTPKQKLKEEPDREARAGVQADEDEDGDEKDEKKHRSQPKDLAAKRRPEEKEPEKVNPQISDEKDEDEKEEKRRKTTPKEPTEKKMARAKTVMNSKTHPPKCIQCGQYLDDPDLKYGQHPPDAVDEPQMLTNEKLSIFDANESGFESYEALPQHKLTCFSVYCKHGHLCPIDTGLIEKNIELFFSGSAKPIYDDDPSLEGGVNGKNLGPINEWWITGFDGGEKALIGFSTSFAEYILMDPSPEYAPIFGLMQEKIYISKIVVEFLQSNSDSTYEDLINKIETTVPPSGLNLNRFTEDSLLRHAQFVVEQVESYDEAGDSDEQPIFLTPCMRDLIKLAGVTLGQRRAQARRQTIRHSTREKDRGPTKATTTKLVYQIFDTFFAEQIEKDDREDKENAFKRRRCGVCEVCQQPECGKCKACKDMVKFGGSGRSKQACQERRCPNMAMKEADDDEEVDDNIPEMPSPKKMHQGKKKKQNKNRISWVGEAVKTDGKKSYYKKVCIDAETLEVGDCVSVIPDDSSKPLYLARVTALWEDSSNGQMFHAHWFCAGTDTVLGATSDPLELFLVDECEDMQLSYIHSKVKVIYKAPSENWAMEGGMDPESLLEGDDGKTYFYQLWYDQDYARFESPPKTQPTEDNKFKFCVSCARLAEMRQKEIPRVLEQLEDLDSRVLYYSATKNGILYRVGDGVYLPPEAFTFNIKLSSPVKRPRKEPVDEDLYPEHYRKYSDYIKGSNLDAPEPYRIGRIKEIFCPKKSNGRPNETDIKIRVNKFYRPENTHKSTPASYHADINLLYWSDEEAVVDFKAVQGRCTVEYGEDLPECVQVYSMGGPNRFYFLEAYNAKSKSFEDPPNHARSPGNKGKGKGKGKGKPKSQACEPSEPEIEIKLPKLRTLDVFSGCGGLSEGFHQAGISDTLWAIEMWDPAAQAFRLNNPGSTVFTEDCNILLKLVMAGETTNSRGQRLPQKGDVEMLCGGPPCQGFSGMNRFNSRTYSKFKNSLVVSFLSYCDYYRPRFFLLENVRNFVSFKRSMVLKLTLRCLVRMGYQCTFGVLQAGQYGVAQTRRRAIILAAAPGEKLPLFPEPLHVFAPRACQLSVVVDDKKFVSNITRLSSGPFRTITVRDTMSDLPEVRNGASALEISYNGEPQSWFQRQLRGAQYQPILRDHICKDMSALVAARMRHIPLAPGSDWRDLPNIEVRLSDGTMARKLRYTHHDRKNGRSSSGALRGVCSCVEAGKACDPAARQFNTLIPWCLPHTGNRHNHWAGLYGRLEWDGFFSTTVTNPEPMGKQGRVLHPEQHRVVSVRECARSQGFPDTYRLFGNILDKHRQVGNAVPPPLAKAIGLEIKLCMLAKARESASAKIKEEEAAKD
The subject of data set [30] is HL-60. The data set is described as follows: Antiproliferative activity against human HL-60 cells assessed as reduction cell viability incubated for 48 hrs by MTT assay. It is filed as functional, cell-based. As to conditions: HL-60, 48 h.
Data set [31] deals with HCT-116. The data set is described as follows: Antiproliferative activity against human HCT-116 cells assessed as reduction cell viability incubated for 48 hrs by MTT assay. It is filed as functional, cell-based. As to conditions: HCT-116, 48 h.
In data set [32] the test system is MCF7. The experiment in a line: Antiproliferative activity against human MCF7 cells assessed as reduction cell viability incubated for 48 hrs by MTT assay. It counts as functional, cell-based. As to conditions: MCF7, 48 h.
Data set [33] concerns HT-1080. The data set is described as follows: Antiproliferative activity against human HT-1080 cells assessed as reduction cell viability incubated for 48 hrs by MTT assay. It counts as functional, cell-based. The conditions noted are these: HT-1080, 48 h.
Data set [34] concerns M14. The experiment in a line: Antiproliferative activity against human M14 cells assessed as reduction cell viability incubated for 48 hrs by MTT assay. It is filed as functional, cell-based. The conditions noted are these: M14, 48 h.
Data set [35] concerns the target DNA (cytosine-5)-methyltransferase 3A (Homo sapiens, UniProt Q9Y6K1). The data set is described as follows: Inhibition of C-terminal biotin-labelled human DNMT3A by multilabel plate reader analysis.
For data set [36], the system named is NCI-H1299. The data set is described as follows: Antiproliferative activity against human NCI-H1299 cells assessed as reduction cell viability incubated for 48 hrs by MTT assay. It is filed as functional, cell-based. As to conditions: NCI-H1299, 48 h.
Data set [37] relates to U-937. The experiment in a line: Antiproliferative activity against human U-937 cells assessed as reduction cell viability incubated for 48 hrs by MTT assay. It counts as functional, cell-based. As to conditions: U-937, 48 h.
In data set [38] the test system is HeLa. The experiment in a line: Antiproliferative activity against human HeLa cells assessed as reduction cell viability incubated for 48 hrs by MTT assay. It is filed as functional, cell-based.

The structures appear in SMILES notation.

Chain of DNA (cytosine-5)-methyltransferase 3A (Q9Y6K1 whole entry, looked up): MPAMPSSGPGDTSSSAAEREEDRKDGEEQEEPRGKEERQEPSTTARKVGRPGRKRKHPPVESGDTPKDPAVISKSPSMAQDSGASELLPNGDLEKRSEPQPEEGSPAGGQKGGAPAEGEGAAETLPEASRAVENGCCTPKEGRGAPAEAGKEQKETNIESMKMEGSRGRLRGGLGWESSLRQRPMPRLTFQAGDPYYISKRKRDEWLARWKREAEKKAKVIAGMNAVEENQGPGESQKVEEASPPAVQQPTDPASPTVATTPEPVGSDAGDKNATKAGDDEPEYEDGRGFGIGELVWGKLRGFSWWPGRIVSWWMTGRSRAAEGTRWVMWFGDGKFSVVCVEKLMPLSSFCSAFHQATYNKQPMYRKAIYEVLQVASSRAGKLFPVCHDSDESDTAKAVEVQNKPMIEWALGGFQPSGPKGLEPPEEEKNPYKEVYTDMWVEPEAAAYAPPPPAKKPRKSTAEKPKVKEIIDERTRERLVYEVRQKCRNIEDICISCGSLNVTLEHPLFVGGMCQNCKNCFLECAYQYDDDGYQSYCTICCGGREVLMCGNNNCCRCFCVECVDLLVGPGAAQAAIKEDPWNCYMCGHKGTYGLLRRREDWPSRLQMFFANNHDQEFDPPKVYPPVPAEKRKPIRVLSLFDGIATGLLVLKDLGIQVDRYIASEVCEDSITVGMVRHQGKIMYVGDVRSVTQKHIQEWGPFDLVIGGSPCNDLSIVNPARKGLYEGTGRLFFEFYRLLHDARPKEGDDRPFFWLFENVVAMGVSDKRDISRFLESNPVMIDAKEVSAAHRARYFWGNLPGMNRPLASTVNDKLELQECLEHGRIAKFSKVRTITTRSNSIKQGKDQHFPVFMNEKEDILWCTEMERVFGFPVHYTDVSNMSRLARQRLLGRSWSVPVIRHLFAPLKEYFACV

A word on the IC50: it is the concentration needed to halve the response being measured. In general, bioavailability refers to dose-corrected exposure relative to a reference, in per cent. Take `CN(C)CCCO/N=C1\c2cc(OCCCN(C)C)ccc2-c2cnc3ccccc3c21`: the IC50 was determined as 390 nM in data set [1], 1110 nM in [2], 4950 nM in data set [3] and 2630 nM in [4]. The bioavailability in data set [5] came out at 39.8%.

In turn, `O[C@@H]1[C@@H](O)[C@H](Oc2ccc(O[C@@H]3O[C@H](COc4cccc5cccnc45)[C@@H](O)[C@H](O)[C@H]3O)cc2)O[C@H](COc2cccc3cccnc23)[C@H]1O` yielded an Activity in data set [6] of 34.9%.

`NCCCOc1cc(NC(=O)c2cc(Cl)cc(C(=O)Nc3cc(OCCCN)c4ccccc4n3)n2)nc2ccccc12`: the concentration for half-maximal inhibition (IC50) in [7], in data set [8], in data set [9] and in [10] was 300 nM each time.

Regarding `CCN(CC)CCCNc1ccc2c(c1)[nH]c1c2c[n+](C)c2ccc(NCCCN(CC)CC)cc12`, the IC50 in [11] worked out at 220 nM.

As to `CC1(C)CC(=O)Nc2ccc(C(=O)NCC3CCC(/C=C/C(=O)NO)CC3)cc21` (stereo not given), the IC50 in data set [12] was 1.5 nM; in [13] it was 1 nM; in data set [14] it was 0.6 nM; in data set [15], 600 nM.

As to `CCCCCCOc1ccc(/C=N/Nc2cc(C)nc3ccc(Cl)cc23)cc1`, the IC50 in data set [16] amounted to 3170 nM; in [17] it was 4880 nM; in data set [18] it was 2200 nM; in [19], 3220 nM.

As a reminder, the GI50 is the concentration that inhibits growth by half. Consider `N#CC1=C(N)Oc2c(ccc3ccccc23)C1c1cc2ccccc2n2nnnc12` (stereo not given), for which the GI50 was determined as 300 nM in data set [20], 260 nM in [22] and 232 nM in [23]. For the same compound, 278 nM corresponded to half-maximal inhibition in [21] (IC50).

Regarding `CC1CN(c2nc3ccccc3c3c2-c2ccc(Cl)cc2C3=O)CCN1` (stereo not given), the IC50 came to 2400 nM in [24] and 1660 nM in data set [25].

As to `CCN(CC)CCOC(=O)c1ccc2c(c1)C1C(C(=O)c3ccccc3N1CCN(CC)CC)N2CCN(CC)CC` (stereo not given), the IC50 in data set [15] was < 10000 nM.

`CC[C@@]1(O)C(=O)OCc2c1cc1n(c2=O)Cc2c-1nc1cc(F)c(OC)cc1c2C`: the half-inhibitory concentration (IC50) in data set [26] worked out at 2.6 nM; in data set [27], 1.4 nM; in data set [28] it was 1.9 nM.

With `O=C(Nc1ccc(Nc2ccnc3ccccc23)cc1)c1cccc(Nc2ccnc3ccccc23)c1`, the IC50 turned out to be 27000 nM in data set [29]; 1600 nM in data set [30]; 1500 nM in data set [31]; 300 nM in data set [32]; 2700 nM in data set [33]; 4700 nM in [34]. The IC50 in data set [35] came to 800 nM; in [36], 5300 nM; in data set [37] it was 700 nM; in [38], 2000 nM.

With `O=C(Nc1cccc(Nc2ccnc3ccccc23)c1)c1cccc(Nc2ccnc3ccccc23)c1`, the IC50 in data set [37] was determined as 1500 nM.
